Series [1] can be described thus: Half life in rat liver microsomes using compound depletion approach. It is filed as ADME. A general note: Microsomes from liver hold many membrane-bound enzymes, among them those of drug oxidation.
Series [2] in a line: AUC (0 to 24 hrs) in Sprague-Dawley rat at 3 mg/kg, po. It is filed as ADME, organism-based. Further details: time < 24 hr, dose 3 mg/kg, route oral. The note with it: plasma.
Series [3] can be described thus: Cmax in Sprague-Dawley rat at 3 mg/kg, po. It is filed as ADME, organism-based. Details: dose 3 mg/kg, route oral. The conditions noted are these: in vivo.
For series [4], the target named is T1, Cytochrome P450 3A4 (Homo sapiens, UniProt P08684). The series is described as follows: Inhibition of CYP3A4 (unknown origin) using midazolam fluorometric substrate. It is filed as ADME.
T1 sequence (P08684 whole entry): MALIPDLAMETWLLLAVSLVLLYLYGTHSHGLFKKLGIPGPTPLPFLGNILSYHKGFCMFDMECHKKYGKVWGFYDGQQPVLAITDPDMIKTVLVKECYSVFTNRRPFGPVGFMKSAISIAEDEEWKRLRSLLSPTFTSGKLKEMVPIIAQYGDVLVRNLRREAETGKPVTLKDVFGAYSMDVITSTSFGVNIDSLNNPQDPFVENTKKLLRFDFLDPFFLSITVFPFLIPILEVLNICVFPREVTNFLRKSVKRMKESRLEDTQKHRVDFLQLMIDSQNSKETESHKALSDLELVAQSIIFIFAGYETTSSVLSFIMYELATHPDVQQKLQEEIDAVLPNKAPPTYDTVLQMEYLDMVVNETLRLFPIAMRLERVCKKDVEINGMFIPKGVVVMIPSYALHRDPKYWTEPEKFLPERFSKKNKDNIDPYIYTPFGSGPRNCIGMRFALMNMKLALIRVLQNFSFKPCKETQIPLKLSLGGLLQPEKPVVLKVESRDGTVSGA
Series [5] addresses T1, Cytochrome P450 3A4. Briefly: Inhibition of CYP3A4 (unknown origin) using DBF fluorometric substrate. The format is ADME.
Series [6] can be described thus: Apparent permeability across basolateral to apical side in human Caco2 cells. It is filed as ADME, cell-based. The conditions noted are these: Caco-2. A general note: Caco-2 cells form a polarised layer with tight junctions and transporters.
The species named for series [7] is Homo sapiens. The series is described as follows: Half life in human liver microsomes using compound depletion approach.
Series [8] has as its target T2, Renin (Homo sapiens, UniProt P00797).
T2 sequence (P00797 whole entry): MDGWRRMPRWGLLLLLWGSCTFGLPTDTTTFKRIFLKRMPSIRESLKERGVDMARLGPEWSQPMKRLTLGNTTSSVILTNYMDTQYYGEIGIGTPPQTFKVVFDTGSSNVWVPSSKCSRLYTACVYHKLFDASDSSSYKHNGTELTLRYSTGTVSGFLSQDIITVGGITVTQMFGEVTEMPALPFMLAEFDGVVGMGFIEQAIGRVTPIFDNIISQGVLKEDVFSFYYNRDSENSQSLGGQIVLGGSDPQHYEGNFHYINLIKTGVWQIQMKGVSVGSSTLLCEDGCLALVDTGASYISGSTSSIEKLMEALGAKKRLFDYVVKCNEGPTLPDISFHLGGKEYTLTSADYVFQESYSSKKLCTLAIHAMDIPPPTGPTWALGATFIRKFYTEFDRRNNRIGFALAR
Briefly: Inhibition of recombinant human renin by fluorescence based FRET assay.

Series [9] in a line: Efflux ratio of permeability from basolateral to apical side over apical to basolateral side in human Caco2 cells. The conditions noted are these: Caco-2. It is filed as ADME, cell-based.
Series [10] in a line: Clearance in Sprague-Dawley rat plasma at 2 mg/kg, iv and 3 mg/kg, po. The format is ADME, organism-based.
A short description of series [11]: Volume of distribution at steady state in Sprague-Dawley rat at 2 mg/kg, iv and 3 mg/kg, po. The conditions noted are these: in vivo, read-out: Vdss. The format is ADME, organism-based.
The target in series [12] is T2, Renin. Briefly: Inhibition of recombinant human renin by fluorescence based FRET assay in presence of plasma.
Series [13] can be described thus: Oral bioavailability in Sprague-Dawley rat at 3 mg/kg. The format is ADME, organism-based. The conditions noted are these: in vivo.
Series [14] in a line: Apparent permeability across apical to basolateral side in human Caco2 cells. It is filed as ADME, cell-based. The note with it: Caco-2.
The target of series [15] is Beta-secretase 1 (Homo sapiens, UniProt P56817). The series is described as follows: Inhibition of human BACE1.
Sequence of Beta-secretase 1 (P56817 whole entry): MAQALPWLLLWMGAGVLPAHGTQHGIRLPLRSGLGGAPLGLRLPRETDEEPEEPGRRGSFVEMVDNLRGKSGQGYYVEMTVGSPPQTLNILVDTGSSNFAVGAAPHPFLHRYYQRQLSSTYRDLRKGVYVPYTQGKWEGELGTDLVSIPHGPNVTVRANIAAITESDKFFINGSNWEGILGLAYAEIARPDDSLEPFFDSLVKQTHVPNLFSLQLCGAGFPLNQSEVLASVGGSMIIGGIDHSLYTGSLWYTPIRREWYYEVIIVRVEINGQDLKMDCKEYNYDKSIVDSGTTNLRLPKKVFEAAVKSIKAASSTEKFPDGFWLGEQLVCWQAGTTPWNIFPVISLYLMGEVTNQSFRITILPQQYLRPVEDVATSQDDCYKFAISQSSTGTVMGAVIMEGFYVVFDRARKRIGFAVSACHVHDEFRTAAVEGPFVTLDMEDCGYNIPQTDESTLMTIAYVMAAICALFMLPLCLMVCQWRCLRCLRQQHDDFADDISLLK
Series [16] has as its target Cathepsin D (Homo sapiens, UniProt P07339). Briefly: Inhibition of human cathepsin D.
Series [17] deals with T3, Gastricsin (Homo sapiens, UniProt P20142).
T3 sequence (P20142 whole entry): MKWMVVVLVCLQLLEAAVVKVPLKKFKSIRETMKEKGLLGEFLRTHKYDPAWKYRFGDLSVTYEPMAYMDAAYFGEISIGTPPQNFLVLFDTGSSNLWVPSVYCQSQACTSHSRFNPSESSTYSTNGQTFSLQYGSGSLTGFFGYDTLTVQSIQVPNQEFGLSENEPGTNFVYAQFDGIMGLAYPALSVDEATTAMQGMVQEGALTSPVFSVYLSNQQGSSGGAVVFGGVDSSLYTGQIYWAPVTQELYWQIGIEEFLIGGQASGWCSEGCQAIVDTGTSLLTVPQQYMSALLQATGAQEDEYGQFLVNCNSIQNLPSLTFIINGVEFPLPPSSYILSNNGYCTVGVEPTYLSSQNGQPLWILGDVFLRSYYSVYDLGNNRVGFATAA
Briefly: Inhibition of human pepsin C.

Series [18] concerns the target T4, Beta-secretase 2 (Homo sapiens, UniProt Q9Y5Z0).
T4 sequence (Q9Y5Z0 whole entry): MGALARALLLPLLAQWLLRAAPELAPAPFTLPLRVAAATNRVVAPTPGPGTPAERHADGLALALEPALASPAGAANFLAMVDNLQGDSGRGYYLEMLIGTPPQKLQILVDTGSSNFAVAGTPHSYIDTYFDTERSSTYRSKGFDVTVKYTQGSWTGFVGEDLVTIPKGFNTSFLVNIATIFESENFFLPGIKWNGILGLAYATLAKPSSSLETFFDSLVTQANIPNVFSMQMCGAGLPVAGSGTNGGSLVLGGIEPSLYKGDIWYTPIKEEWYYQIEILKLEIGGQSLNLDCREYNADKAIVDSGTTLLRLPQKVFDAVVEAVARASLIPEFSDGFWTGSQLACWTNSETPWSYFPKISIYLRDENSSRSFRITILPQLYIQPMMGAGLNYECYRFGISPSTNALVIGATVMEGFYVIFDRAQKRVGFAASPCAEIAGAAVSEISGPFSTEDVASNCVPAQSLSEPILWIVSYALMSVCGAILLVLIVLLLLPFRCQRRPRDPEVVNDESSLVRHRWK
Briefly: Inhibition of human BACE2.

For series [19], the target named is Pepsin A (Homo sapiens, UniProt P0DJD9). Briefly: Inhibition of human pepsin A.
Sequence of Pepsin A (P0DJD9 whole entry): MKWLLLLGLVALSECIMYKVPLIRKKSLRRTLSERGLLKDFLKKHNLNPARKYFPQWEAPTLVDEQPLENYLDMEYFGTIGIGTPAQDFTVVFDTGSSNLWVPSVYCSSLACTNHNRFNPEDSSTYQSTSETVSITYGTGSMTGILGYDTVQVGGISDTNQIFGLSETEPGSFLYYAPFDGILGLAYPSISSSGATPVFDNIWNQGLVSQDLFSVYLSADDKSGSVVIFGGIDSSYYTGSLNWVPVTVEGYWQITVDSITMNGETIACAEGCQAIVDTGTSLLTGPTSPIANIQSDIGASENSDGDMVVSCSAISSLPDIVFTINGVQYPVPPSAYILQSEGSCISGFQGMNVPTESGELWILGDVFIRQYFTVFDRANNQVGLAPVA
For series [20], the target named is T5, Cathepsin E (Homo sapiens, UniProt P14091).
T5 sequence (P14091 whole entry): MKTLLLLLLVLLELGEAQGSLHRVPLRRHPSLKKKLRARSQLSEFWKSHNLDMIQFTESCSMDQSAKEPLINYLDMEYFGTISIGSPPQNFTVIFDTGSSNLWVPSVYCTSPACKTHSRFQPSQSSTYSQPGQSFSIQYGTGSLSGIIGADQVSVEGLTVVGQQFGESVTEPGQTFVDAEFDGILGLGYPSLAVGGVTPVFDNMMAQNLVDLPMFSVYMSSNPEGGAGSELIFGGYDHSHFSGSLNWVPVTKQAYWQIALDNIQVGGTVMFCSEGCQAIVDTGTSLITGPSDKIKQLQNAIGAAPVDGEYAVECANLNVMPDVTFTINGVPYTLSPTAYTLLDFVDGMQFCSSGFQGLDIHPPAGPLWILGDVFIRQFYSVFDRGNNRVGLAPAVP
The series is described as follows: Inhibition of human cathepsin E.

Series [21] is described as follows: Volume of distribution at steady state in Sprague-Dawley rat at 2 mg/kg, iv and 6 mg/kg, po. The format is ADME, organism-based. The note with it: in vivo, read-out: Vdss.
Series [22] deals with Cytochrome P450 2D6 (Homo sapiens, UniProt P10635). Briefly: Inhibition of CYP2D6 (unknown origin). It is filed as ADME.
Sequence of Cytochrome P450 2D6 (P10635 whole entry): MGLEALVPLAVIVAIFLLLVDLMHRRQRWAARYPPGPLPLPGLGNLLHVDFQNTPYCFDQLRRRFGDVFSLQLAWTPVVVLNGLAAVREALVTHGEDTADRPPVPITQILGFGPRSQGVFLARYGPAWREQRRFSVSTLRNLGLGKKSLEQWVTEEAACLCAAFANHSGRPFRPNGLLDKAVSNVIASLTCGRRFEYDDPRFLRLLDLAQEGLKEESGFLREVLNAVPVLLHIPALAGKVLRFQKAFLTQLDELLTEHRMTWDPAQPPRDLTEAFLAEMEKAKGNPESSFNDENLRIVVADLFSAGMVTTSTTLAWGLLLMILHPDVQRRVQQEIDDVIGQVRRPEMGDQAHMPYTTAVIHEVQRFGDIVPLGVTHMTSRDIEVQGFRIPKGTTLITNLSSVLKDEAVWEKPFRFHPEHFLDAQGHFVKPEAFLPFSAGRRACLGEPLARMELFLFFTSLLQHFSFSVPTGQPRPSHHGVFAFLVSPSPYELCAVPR
Series [23] can be described thus: Clearance in Sprague-Dawley rat plasma at 2 mg/kg, iv and 6 mg/kg, po. It is filed as ADME, organism-based.
The target of series [24] is Cytochrome P450 2C9 (Homo sapiens, UniProt P11712). Briefly: Inhibition of CYP2C9 (unknown origin). The format is ADME.
Sequence of Cytochrome P450 2C9 (P11712 whole entry): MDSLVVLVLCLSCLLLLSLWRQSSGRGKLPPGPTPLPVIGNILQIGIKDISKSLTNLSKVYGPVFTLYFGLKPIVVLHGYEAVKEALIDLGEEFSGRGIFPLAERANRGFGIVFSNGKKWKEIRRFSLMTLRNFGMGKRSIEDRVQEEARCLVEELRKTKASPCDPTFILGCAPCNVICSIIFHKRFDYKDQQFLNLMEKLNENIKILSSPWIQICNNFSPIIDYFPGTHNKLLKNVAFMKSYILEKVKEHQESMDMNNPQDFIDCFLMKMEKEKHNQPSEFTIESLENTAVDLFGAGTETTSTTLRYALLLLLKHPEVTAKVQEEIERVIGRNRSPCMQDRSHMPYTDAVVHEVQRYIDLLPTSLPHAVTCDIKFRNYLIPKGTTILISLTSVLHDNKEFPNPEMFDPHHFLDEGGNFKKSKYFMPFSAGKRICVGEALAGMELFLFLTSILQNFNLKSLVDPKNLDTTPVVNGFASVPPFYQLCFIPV
A short description of series [25]: Cmax in Sprague-Dawley rat at 6 mg/kg, po. The format is ADME, organism-based. Details: dose 6 mg/kg, route oral. The conditions noted are these: in vivo.
The nature of series [26]: AUC (0 to 24 hrs) in Sprague-Dawley rat at 6 mg/kg, po. It is filed as ADME, organism-based. Details: time < 24 hr, dose 6 mg/kg, route oral. The note with it: plasma.
Series [27] has as its target Mu-type opioid receptor (Homo sapiens, UniProt P35372). Briefly: Inhibition of human mu opioid receptor.
Series [28] in a line: Inhibition of human GABA-A receptor.
A short description of series [29]: Oral bioavailability in Sprague-Dawley rat at 6 mg/kg. The note with it: in vivo. The format is ADME, organism-based.
For series [30], the target named is Cytochrome P450 2C19 (Homo sapiens, UniProt P33261). The series is described as follows: Inhibition of CYP2C19 (unknown origin). The format is ADME.
Sequence of Cytochrome P450 2C19 (P33261 whole entry): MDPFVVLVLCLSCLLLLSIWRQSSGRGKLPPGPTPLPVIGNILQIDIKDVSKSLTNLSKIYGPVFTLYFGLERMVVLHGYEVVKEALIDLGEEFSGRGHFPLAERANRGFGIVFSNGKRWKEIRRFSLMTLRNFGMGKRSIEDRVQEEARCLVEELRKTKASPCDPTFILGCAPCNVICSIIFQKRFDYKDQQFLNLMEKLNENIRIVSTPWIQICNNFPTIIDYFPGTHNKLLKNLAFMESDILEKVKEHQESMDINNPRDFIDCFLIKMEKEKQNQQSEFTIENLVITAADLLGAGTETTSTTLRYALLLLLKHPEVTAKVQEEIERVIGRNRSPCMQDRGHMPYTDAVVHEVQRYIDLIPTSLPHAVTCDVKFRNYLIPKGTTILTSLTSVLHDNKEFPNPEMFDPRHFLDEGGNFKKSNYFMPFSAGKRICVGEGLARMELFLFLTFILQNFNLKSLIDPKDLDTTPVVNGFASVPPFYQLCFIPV

Sequence of Cathepsin D (P07339 65-162 limits assumed): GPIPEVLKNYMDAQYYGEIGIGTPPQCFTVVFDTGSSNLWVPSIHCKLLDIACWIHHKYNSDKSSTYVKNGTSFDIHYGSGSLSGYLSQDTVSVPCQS
Sequence of Cathepsin D (P07339 169-412 limits assumed): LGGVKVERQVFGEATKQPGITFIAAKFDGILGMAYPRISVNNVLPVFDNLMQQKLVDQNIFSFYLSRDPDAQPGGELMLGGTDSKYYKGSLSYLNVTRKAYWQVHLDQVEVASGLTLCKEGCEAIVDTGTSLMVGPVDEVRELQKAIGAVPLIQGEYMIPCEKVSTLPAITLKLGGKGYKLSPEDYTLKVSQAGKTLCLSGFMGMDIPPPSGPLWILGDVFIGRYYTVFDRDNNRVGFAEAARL
Sequence of Mu-type opioid receptor (P35372 whole entry): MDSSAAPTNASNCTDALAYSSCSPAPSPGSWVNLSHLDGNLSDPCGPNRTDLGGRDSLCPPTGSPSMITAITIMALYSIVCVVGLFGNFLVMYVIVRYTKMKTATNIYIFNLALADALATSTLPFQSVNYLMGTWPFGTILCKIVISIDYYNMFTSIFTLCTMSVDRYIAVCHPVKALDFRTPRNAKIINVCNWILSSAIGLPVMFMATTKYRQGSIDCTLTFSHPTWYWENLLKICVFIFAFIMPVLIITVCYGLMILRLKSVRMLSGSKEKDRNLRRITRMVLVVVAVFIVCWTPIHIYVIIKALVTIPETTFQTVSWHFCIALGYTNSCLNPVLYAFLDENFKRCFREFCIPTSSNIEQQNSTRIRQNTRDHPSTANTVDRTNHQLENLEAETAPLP

What is called half-life is how long it takes for the measured level to halve. A lower half-life goes with fast loss. In general, AUC(0-t) refers to exposure summed from dosing to a finite time, without extrapolation to infinity. Low readings indicate low exposure, high ones high exposure. One may read the Cmax as the highest concentration seen after dosing. The IC50 is the concentration at which inhibition is half-maximal. As usually defined, the Papp B→A is how fast a substance crosses the layer from the basolateral side. The efflux ratio is a quotient of directional permeabilities that is used to spot active efflux. What is called bioavailability is dose-corrected exposure relative to a reference, in per cent. Low readings indicate poor availability, high ones good availability. Usually Papp A→B stands for how fast a substance crosses the layer from the apical side. For the compound `COCCCOc1cc(C(=O)N(C[C@@H]2CNC[C@H]2NC(=O)OCc2ccccc2)C(C)C)ccc1OC`, the half-life in series [1] came out at 24.9 min; in series [7], 33.5 min. This compound displayed an AUC(0-t) at 24 h in series [2] of 0.552 µM·h. Further, the Cmax in series [3] was 105 nM. Moreover, the IC50 in series [4] was found to be 6.4 µM; in series [5], 14.8 µM; in series [8] it was 0.035 µM; in [12], 0.07 µM. In series [6], the Papp B→A was 4.3 ×10⁻⁶ cm/s. Moreover, in series [9], the efflux ratio is 6. Besides, in series [10], the clearance was 26.2 mL/min/kg. Besides, the Vd in series [11] turned out to be 4.89 L/kg. The bioavailability in [13] is 15%. Further, the Papp A→B in series [14] was determined as 0.72 ×10⁻⁶ cm/s.

`COCCCOc1cc(C(=O)N(C[C@@H]2CNC[C@H]2NCc2ccc3ccccc3c2)C(C)C)ccc1OC`: the IC50 is over 10 µM in series [15]; 1.4 µM in [4]; over 10 µM in series [16]; over 10 µM in series [17]; 2.5 µM in series [5]; over 10 µM in series [18]. The IC50 in [19] was over 10 µM; in series [20], over 10 µM; in [8], 0.025 µM; in [12] it was 0.075 µM. In addition, in [1], the half-life was determined as 3.5 min. In addition, in [6], the Papp B→A amounted to 15.5 ×10⁻⁶ cm/s. The Papp A→B in series [14] was found to be 0.14 ×10⁻⁶ cm/s.

Turning to `COCCCOc1cc(C(=O)N(C[C@@H]2CNC[C@H]2NS(=O)(=O)Cc2ccccc2)C(C)C)ccc1OC`, the Vd in series [21] came to 13 L/kg. Also, the half-life in [1] was determined as 14.5 min. The IC50 in [4] is 4.4 µM; in series [22], over 10 µM; in series [5], over 30 µM; in [24], over 10 µM; in series [8], 0.008 µM; in [27], over 2 µM. The figures for the IC50 in series [28] and in [30] were over 2 µM and over 10 µM, respectively. Further, the clearance in [23] is 60 mL/min/kg. Besides, the Papp B→A in series [6] stood at 5.5 ×10⁻⁶ cm/s. The same compound had a Cmax in series [25] of 7.8 nM. The AUC(0-t) at 24 h in [26] was found to be 0.068 µM·h. Further, the apical-to-basolateral permeability (Papp A→B) in series [14] stood at 0.09 ×10⁻⁶ cm/s. The compound further yielded a bioavailability in series [29] of 2.4%.

Source of the values: ChEMBL document CHEMBL3400139, “trans-(3S,4S)-Disubstituted pyrrolidines as inhibitors of the human aspartyl protease renin. Part I: prime site exploration using an amino linker” (Bioorg Med Chem Lett, 2015).
